Measured values published in PMC7470027, “Synthesis and structure-activity relationships of novel 5-(hydroxamic acid)methyl oxazolidinone derivatives as 5-lipoxygenase inhibitors” (Journal of Enzyme Inhibition and Medicinal Chemistry, 2020).

Assays:
[1] = system: leukotriene (LT) biosynthesis / 5-LO; test: Overall activity across the four in vitro test systems (three cell-based LT release assays and 5-LO)
Method: Furthermore, in order to confirm that the in vitro inhibitory activity of the compounds was not due to the direct toxic effects on the cells, the effect of the compounds on the viability of isolated human monocytes after 3 h and 24 h treatment was performed. Finally, in vivo anti-inflammatory studies were performed using the zymosan-induced peritoneal inflammation model in mice, which is a well-known model in which the LTs are known to play a critical role[26].
The inhibitory activity data for the tested compounds obtained in three cell-based in vitro test systems - LTB4 release from human whole blood, LTC4 release from isolated human monocytes and LTC4 release from IgE/antigen-activated mouse mast cells, are shown in Table 1. Similar data on the direct inhibitory effect on the enzymatic activity of recombinant human 5-LO, together with the calculated Clog P (log of partition coefficient) values, which is an indication of the lipophilicity of each compound, are also shown in Table 1.

[2] = system: 5-LO-dependent generation of LTB4 from activated human whole blood; test: Inhibition of 5-LO product LTB4 from activated human whole blood (LPS/FMLP); type: cell-based; conditions: LPS-primed, FMLP-stimulated human whole blood; 95% confidence interval in brackets; read-out: Human whole blood LTB4 IC50 (CI)
Method: All compounds were evaluated for inhibitory activity against the 5-LO-dependent generation of LTB4 from activated human whole blood. With ethical approval from the Health Sciences Centre Ethical Committee of Kuwait University, heparinised fresh human blood samples from apparently healthy individuals of both sexes were obtained from the Kuwait Central Blood Bank. All donors gave informed consent and the work was carried out in accordance with the “Declaration of Helsinki” for experiments involving human subjects. Aliquots of 185 µl of whole blood were dispensed into each well of a 96-well culture plate containing 5 µl of the priming agent, LPS (1 µg/ml final concentration). […] After further incubation for 15 min at 37 °C, 5 µl of FMLP (1 µM final concentration) was added to stimulate LT production. The reaction was stopped 15 min later, and the supernatants were recovered by centrifugation and stored at −40 °C pending analysis of LTB4 content.
(§1) Appropriately diluted supernatants were assayed for the released products – LTs (LTB4 and LTC4), by the enzyme immunoassay (EIA) method using assay kits supplied by R&D Systems (Minneapolis, MN) and following the manufacturer’s instructions.
(§2) All data were analysed using GraphPad Prism software (GraphPad Software, San Diego, CA). […] Differences between experimental groups were first analysed by one-way ANOVA, followed by Bonferroni’s post-hoc test. A p-value of less than 0.05 was taken as statistically significant.

[3] = system: 5-LO product LTC4 from allergen/IgE-activated bone marrow-derived mouse mast cells (BMMC); test: Inhibition of 5-LO product LTC4 from allergen/IgE-activated bone marrow-derived mouse mast cells (BMMC); type: cell-based; conditions: Mus musculus; anti-DNP IgE/DNP-BSA-activated BMMC; 95% confidence interval in brackets; read-out: Mouse mast cell LTC4 IC50 (CI)
Method: Bone marrow-derived mast cells (BMMC) were generated from pathogen-free 5 to 7-weeks-old male Balb/c mice according to the method of Davis et al.[28]. Essentially, bone marrow cells were obtained by flushing the femoral bone marrow and the recovered cells cultured in RPMI 1640 medium supplemented with 10% FBS, 100 U/ml penicillin, and 100 µg/ml streptomycin, 25 mM HEPES, 1.0 mM sodium pyruvate, 0.1 mM nonessential amino acids, 0.0035% 2-mercaptoethanol, and 30 ng/ml mouse recombinant IL-3, with culture medium, replaced every 2 days. Cells were used after 4–8 weeks of culture, by which time at least 97% of the cells would have differentiated into mast cells, as routinely obtained in our laboratory.
The generated BMMCs were seeded at 5 × 10^4 cells/well in a 96-well flat-bottom culture plate and passively sensitised overnight with 0.5 µg/ml anti-DNP monoclonal IgE antibody. The cells were then washed twice to remove any unbound antibody and subsequently resuspended in reaction buffer (135 mM NaCl, 5 mM KCl, 1.8 mM CaCl2, 1 mM MgCl2, 5.6 mM glucose, 0.05% BSA and 20 mM HEPES, pH 7.4). They were then pre-incubated with the test compounds (0.001 − 30 μM) or the solvent (0.05% DMSO) for 15 min before being stimulated with the specific antigen, DNP-BSA (10–30 ng/ml). After 30 min incubation at 37 °C, the amount of LTC4 released into the supernatant was determined by ELISA as described below.
as §1, §2

- IC50 ([1]; summary statements, in vitro test systems, read-out: IC50 (test system not specified / across test systems)): < 1000 nM
- IC50 [2]: 700 nM
- IC50 [3]: 1300 nM
Structure (SMILES): CCCCCCC(=O)N(O)C[C@H]1CN(c2ccc(N3CCOCC3)c(F)c2)C(=O)O1 [PH-249, (R)-N-((3-(3-fluoro-4-morpholinophenyl)-2-oxooxazolidin-5-yl)methyl)-N-hydroxyheptanamide]
- Activity across the in vitro test systems (in words) ([1]; cell-based systems and cell-free 5-LO): active in all four test systems
